Results from US20020026053A1, “Novel 3-(substituted) -2- indolinones compounds and use thereof as inhibitors of protein kinase activity” (priority 1997, published 2002).

Key:
PDGF-R = PDGF-R Assay (cellular ELISA, U1242 cells); format: cell-based; parameters: concentration or dose not given beside the values
Procedure, shortened: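 U1242 cells seeded in 0.5% serum, serum-starved, then exposed to compound for 2 hr at 37°C before 5–10 min ligand stimulation and lysis in HNTG. Lysate captured on receptor-antibody-coated plates; phosphotyrosine detected with polyclonal anti-pTyr, goat anti-rabbit IgG and ABTS/H2O2, A410 (ref 630 nm), versus untreated cells.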

EGFR = target: T1, EGFR (Homo sapiens, UniProt P00533); experiment: Biochemical EGFR Assay; parameters: concentration or dose not given beside the values
T1 construct: endogenous in cells; host or cells: A431 cells (lysate, captured with SUMO1 anti-EGFR antibody)
Method: This assay measures the in vitro kinase activity of EGFR using ELISA.
1. Corning 96-well Elisa plates (Corning Catalog No. 25805-96).
2. SUMO1 monoclonal anti-EGFR antibody (Biochemistry Lab, SUGEN, Inc.).
3. PBS (Dulbecco's Phosphate-Buffered Saline, Gibco Catalog No. 450-1300EB).
6. A431 cell lysate (Screening Lab, SUGEN, Inc.)
9. Adenosine-5′-triphosphate (ATP, from Equine muscle, Sigma Cat. No. A-5394).
Prepare a 1.0 mM solution in dH2O. This reagent should be made up immediately prior to use and kept on ice.
Prepare a 1.0 M stock solution in dH2O.
11. ATP/MnCl2 phosphorylation mix
This reagent should be prepared immediately before use and kept on ice
12. NUNC 96-well V bottom polypropylene plates (Applied Scientific Cat. No. AS-72092).
13. Ethylenediaminetetraacetic acid (EDTA)
Prepare 200 mM working solution in dH2O. Adjust to pH 8.0 with 10 N NaOH.
14. Rabbit polyclonal anti-phosphotyrosine serum (Biochemistry Lab, SUGEN, Inc.)
15. Goat anti-rabbit IgG peroxidase conjugate (Biosource Cat. No. ALI0404)
16. ABTS (2,2′-azino-bis(3-ethylbenzthiazoline-6-sulfonic acid), Sigma Cat. No. A-1888).
Mix first two ingredients in about 900 ml dH2O, adjust pH to 4.0 with phosphoric acid. Add ABTS, cover, let sit about 0.5 hr., filter. The solution should be kept in the dark at 4° C. until ready to use.
17. Hydrogen peroxide 30% solution (Fisher Cat. No. H325)
Mix 15 ml ABTS solution and 2.0 μl H2O2. Prepare 5 minutes before use.
1. Coat Corning 96 well ELISA plates with 0.5 μg SUMO1 in 100 μl PBS per well, store overnight at 4° C.
2. Remove unbound SUMO1 from wells by inverting plate to remove liquid. Wash 1× with dH2O. Pat the plate on a paper towel to remove excess liquid.
3. Add 150 μl of Blocking Buffer to each well. Incubate for 30 min. at room temperature with shaking.
4. Wash plate 3× with deionized water, then once with TBST. Pat plate on a paper towel to remove excess liquid and bubbles.
5. Dilute lysate in PBS (7 μg lysate/100 μl PBS)
6. Add 100 μl of diluted lysate to each well. Shake at room temperature for 60 min.
7. Wash plates as described in 4, above.
8. Add 120 μl TBS to ELISA plate containing captured EGFR.
9. Dilute test compound 1:10 in TBS in 96-well polypropylene plates (ie. 10 μl compound+90 μl TBS).
10. Add 13.5 μl diluted test compound to ELISA plate.
11. Incubate for 30 minutes while shaking at room temperature.
13. After 5 minutes, stop reaction by adding 16.5 μl of 200 mM EDTA (pH 8.0) to each well, shaking continuously. After the EDTA has been added, shake for 1 min.
14. Wash 4× with deionized water, twice with TBST.
15. Add 100 μl anti-phosphotyrosine (1:3000 dilution in TBST) per well. Incubate 30-45 min. at room temperature, with shaking.
16. Wash as described in 4, above.
17. Add 100 μl Biosource Goat anti-rabbit IgG peroxidase conjugate (1:2000 dilution in TBST) to each well. Incubate 30 min. at room temperature, with shaking.
18. Wash as described in 4, above.
19. Add 100 μl of ABTS/H2O2 solution to each well.
20. Incubate 5 to 10 minutes with shaking. Remove any bubbles.
21. If necessary stop reaction with the addition of 100 μl 0.2 M HCl per well.
22. Read assay on Dynatech MR7000 ELISA reader. Test Filter: 410 nM Reference Filter: 630 nM

T1 sequence (P00533 25-1210): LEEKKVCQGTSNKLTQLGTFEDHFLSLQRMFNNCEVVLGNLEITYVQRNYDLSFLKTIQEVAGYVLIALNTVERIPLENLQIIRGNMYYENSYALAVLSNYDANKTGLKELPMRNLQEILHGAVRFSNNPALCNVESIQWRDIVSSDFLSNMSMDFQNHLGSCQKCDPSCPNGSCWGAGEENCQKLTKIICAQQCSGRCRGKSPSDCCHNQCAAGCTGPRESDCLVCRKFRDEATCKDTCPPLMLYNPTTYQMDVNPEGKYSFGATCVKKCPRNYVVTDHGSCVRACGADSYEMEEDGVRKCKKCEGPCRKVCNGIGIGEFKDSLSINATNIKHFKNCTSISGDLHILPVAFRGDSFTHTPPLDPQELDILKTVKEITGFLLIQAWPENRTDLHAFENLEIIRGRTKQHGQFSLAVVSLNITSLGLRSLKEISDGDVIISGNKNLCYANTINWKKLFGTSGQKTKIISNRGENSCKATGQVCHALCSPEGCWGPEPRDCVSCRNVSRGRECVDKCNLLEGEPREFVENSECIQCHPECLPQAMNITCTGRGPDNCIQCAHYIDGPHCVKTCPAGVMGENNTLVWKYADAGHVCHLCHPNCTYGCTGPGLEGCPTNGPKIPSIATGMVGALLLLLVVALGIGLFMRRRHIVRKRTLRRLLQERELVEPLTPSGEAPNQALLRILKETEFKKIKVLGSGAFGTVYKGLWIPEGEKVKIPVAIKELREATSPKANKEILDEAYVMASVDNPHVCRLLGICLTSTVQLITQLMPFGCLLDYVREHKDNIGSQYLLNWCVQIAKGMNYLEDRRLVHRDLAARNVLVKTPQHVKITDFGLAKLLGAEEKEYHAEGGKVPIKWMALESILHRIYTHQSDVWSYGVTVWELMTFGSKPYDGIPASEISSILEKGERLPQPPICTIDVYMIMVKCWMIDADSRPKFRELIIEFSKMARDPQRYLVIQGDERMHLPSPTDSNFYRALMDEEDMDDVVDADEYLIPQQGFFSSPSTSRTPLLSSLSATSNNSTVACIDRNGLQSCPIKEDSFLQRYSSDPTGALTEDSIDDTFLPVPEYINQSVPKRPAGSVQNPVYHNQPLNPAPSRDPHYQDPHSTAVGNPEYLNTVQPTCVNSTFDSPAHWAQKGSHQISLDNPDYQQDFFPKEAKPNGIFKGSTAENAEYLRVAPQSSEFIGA

SMILES	PDGF Kinase % Inhibition (P.119) (PDGF-R) [%]	Biochem EGFR % Inhibition (P.167) (EGFR) [%]
O=C1Nc2ccc(I)cc2C1=Cc1cccc(F)c1O [10734/B08]	−2.4	19.3
O=C1Nc2ccc(I)cc2C1=Cc1ccc(O)c(Br)c1 [10734/B09]	12.6	34.9
CC(C)(C)c1ccc(C=C2C(=O)Nc3ccc(I)cc32)cc1 [10734/B10]	7.7	60.7
O=C1Nc2ccc(I)cc2C1=Cc1ccc(Br)s1 [10734/B11]	−5.5	50.9
CCOc1cccc(C=C2C(=O)Nc3ccc(Br)c(C)c32)c1O [10734/C02]	36.0	−6.7
Cc1c(Br)ccc2c1C(=Cc1cc(Cl)cc(Cl)c1O)C(=O)N2 [10734/C03]	24.5	48.6
Cc1c(Br)ccc2c1C(=Cc1cc(Cl)ccc1O)C(=O)N2 [10734/C04]	24.5	38.1
CCN(CC)c1ccc(C=C2C(=O)Nc3ccc(Br)c(C)c32)c(O)c1 [10734/C05]	3.8	9.3
Cc1c(Br)ccc2c1C(=Cc1ccc([N+](=O)[O-])cc1)C(=O)N2 [10734/C06]	−0.2	18.4
Cc1c(Br)ccc2c1C(=Cc1cc(Br)cc(Br)c1O)C(=O)N2 [10734/C07]	32.0	41.0
Cc1c(Br)ccc2c1C(=Cc1cccc(F)c1O)C(=O)N2 [10734/C08]	5.5	35.1
Cc1c(Br)ccc2c1C(=Cc1ccc(O)c(Br)c1)C(=O)N2 [10734/C09]	11.3	36.2
Cc1c(Br)ccc2c1C(=Cc1ccc(C(C)(C)C)cc1)C(=O)N2 [10734/C10]	17.4	24.4
Cc1c(Br)ccc2c1C(=Cc1ccc(Br)s1)C(=O)N2 [10734/C11]	9.1	18.0
CCOc1cccc(C=C2C(=O)Nc3ccc(S(=O)(=O)NC)cc32)c1O [10734/D02]	6.4	5.2
CNS(=O)(=O)c1ccc2c(c1)C(=Cc1cc(Cl)cc(Cl)c1O)C(=O)N2 [10734/D03]	24.1	19.6
CNS(=O)(=O)c1ccc2c(c1)C(=Cc1cc(Cl)ccc1O)C(=O)N2 [10734/D04]	13.5	−10.7
CCN(CC)c1ccc(C=C2C(=O)Nc3ccc(S(=O)(=O)NC)cc32)c(O)c1 [10734/D05]	8.2	−9.6
CNS(=O)(=O)c1ccc2c(c1)C(=Cc1ccc([N+](=O)[O-])cc1)C(=O)N2 [10734/D06]	−9.1	1.3
CNS(=O)(=O)c1ccc2c(c1)C(=Cc1cc(Br)cc(Br)c1O)C(=O)N2 [10734/D07]	28.1	51.1
CNS(=O)(=O)c1ccc2c(c1)C(=Cc1cccc(F)c1O)C(=O)N2 [10734/D08]	2.0	−13.7
CNS(=O)(=O)c1ccc2c(c1)C(=Cc1ccc(O)c(Br)c1)C(=O)N2 [10734/D09]	42.2	21.0
CNS(=O)(=O)c1ccc2c(c1)C(=Cc1ccc(C(C)(C)C)cc1)C(=O)N2 [10734/D10]	9.9	−4.4
